# Experimental data published in US7879876B2, “Sulfonamide derivatives and use thereof for the modulation of metalloproteinases” (Merck Serono SA, priority 2005, dated 2011).
# Tests used:
# Assay type in all cases: biochemical
# collagenase (MMP-1) = target: T1, collagenase (MMP-1) (Homo sapiens, UniProt P03956); assay: MMP-1 enzyme inhibition assay (coumarin-labelled peptide substrate); settings: for inhibition at 5 µM: read-out: percentage inhibition MMP1
# T1 sequence (P03956 100-469): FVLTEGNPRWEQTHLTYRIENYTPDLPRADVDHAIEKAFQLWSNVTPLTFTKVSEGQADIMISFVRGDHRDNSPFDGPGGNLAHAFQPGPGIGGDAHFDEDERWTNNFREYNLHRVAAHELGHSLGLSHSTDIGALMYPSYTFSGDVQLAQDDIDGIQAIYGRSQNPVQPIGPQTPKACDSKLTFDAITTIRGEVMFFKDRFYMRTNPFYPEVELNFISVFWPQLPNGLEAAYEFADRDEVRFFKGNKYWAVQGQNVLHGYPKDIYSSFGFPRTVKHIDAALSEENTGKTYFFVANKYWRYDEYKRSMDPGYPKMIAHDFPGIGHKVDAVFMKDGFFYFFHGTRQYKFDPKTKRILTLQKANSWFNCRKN
# Summary of the method: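 Recombinant human MMP-1, APMA-activated if needed, in Tris-HCl pH 7.6 with NaCl, CaCl2 and 0.05% Brij 35; McaPLGLDpaAR substrate added as 8 μM solution, 2 h at 37 °C. Fluorescence (320/405 nm) read without stopping; IC50 from 10 duplicate concentrations (100 μM–5.1 nM) by four-parameter fit.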
# gelatinase A (MMP-2) = target: T2, gelatinase A (MMP-2) (Homo sapiens, UniProt P08253); assay: MMP-2 enzyme inhibition assay (coumarin-labelled peptide substrate); settings: read-out: IC50 MMP2
# T2 sequence (P08253 110-660): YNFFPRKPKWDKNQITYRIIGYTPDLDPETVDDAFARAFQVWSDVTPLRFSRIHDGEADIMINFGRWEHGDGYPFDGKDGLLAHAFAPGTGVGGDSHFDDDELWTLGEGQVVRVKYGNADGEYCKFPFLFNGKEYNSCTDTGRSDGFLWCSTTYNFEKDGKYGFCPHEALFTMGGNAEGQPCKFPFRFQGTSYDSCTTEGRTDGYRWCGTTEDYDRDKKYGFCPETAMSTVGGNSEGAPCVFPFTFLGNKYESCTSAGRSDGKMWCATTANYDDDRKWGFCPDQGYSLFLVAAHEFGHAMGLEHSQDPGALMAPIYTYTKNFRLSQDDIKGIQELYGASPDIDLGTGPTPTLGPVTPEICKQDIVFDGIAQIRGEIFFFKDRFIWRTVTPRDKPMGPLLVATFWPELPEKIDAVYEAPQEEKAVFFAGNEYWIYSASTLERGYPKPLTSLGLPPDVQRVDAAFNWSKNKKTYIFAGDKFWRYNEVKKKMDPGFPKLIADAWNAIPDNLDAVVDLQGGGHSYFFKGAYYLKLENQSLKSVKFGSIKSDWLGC
# Summary of the method: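 Recombinant human MMP-2, APMA-activated if necessary, run as for the MMP-9 protocol: McaPLGLDpaAR substrate (8 μM working dilution) in 100 mM Tris-HCl pH 7.6, 100 mM NaCl, 10 mM CaCl2, 0.05% Brij 35; ten 3-fold concentrations (100 μM–5.1 nM) in duplicate, 2 h at 37° C. Fluorescence ex 320/em 405 nm, unstopped; IC50 from four-parameter fit.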
# MMP-14 = MMP-14 (Homo sapiens, UniProt P50281); assay: MMP-14 enzyme inhibition assay (coumarin-labelled peptide substrate); settings: for inhibition at 5 µM / inhibition at 0.1 µM: read-out: percentage inhibition MMP14
# Summary of the method: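 Recombinant human enzyme, APMA-activated if necessary, was incubated with McaPLGLDpaAR substrate and compound (10 concentrations in duplicate, 100 μM to 5.1 nM) in Tris-HCl pH 7.6 with NaCl, CaCl2 and Brij 35 for 2 h at 37 °C. Fluorescence was read at 320/405 nm, and IC50 was taken from a four-parameter fit.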
Structure (SMILES),inhibition at 5 µM (collagenase (MMP-1)) [%],IC50 (gelatinase A (MMP-2)) [nM],inhibition at 5 µM (MMP-14) [%],inhibition at 0.1 µM (MMP-14) [%],IC50 (collagenase (MMP-1); read-out: IC50 MMP1) [nM],IC50 (MMP-14; read-out: IC50 MMP14) [nM]
"COc1cc2c(cc1OC)CN(S(=O)(=O)CC(CCc1ccccc1)N(O)C=O)CC2 (stereo not shown) [Example 12, N-(1-{[(6,7-dimethoxy-3,4-dihydroisoquinolin-2(1H)-yl)sulfonyl]methyl}-3-phenylpropyl)-N-hydroxyformamide]",0,> 5000,0,–,–,–
"CCCCCC(C)(C)C(CS(=O)(=O)N1CCc2cc(C(F)(F)F)ccc2C1)N(O)C=O (stereo not shown) [Example 63, N-[2,2-dimethyl-1-({[6-(trifluoromethyl)-3,4-dihydro-isoquinolin-2(1H)-yl]sulfonyl}methyl)heptyl]-N-hydroxyformamide]",34,> 5000,9,–,–,–
"O=CN(O)C(CS(=O)(=O)N1CCc2ccc(C(F)(F)F)cc2C1)C1CC1 (stereo not shown) [Example 83, N-(1-cyclopropyl-2-{[7-(trifluoromethyl)-3,4-dihydroisoquinolin-2(1H)-yl]sulfonyl}ethyl)-N-hydroxyformamide]",4,686,6,–,–,–
"O=CN(O)C(CCc1ccccc1)CS(=O)(=O)N1Cc2ccccc2C1 (stereo not shown) [Example 6, N-{1-[(1,3-dihydro-2H-isoindol-2-ylsulfonyl)methyl]-3-phenylpropyl}-N-hydroxyformamide]",–,323,–,–,> 5000,865
"O=CN(O)C(CCO)CS(=O)(=O)N1CCc2ccc(Cl)cc2C1 (stereo not shown) [Example 48, N-(1-{[(7-chloro-3,4-dihydroisoquinolin-2(1H)-yl)sulfonyl]-methyl}-3-hydroxypropyl)-N-hydroxyformamide]",26,77,41,–,–,–
"O=CN(O)C(CS(=O)(=O)N1CCc2ccccc2C1)C1CC1 (stereo not shown) [Example 4, N-[1-cyclopropyl-2-(3,4-dihydroisoquinolin-2(1H)-ylsulfonyl)ethyl]-N-hydroxyformamide]",19,653,29,–,–,–
"COc1cc2c(cc1OC)CN(S(=O)(=O)CC([C@H](O)CO)N(O)C=O)CC2 (stereo partly drawn) [Example 24, N-((2S)-1-{[(6,7-dimethoxy-3,4-dihydroisoquinolin-2(1H)-yl)sulfonyl]methyl}-2,3-dihydroxypropyl)-N-hydroxyformamide]",0,> 5000,0,–,–,–
"CCCCCC(CS(=O)(=O)N1CCc2ccccc2C1)N(O)C=O (stereo not shown) [Example 3, N-{1-[(3,4-dihydroisoquinolin-2(1H)-ylsulfonyl)methyl]hexyl}-N-hydroxyformamide]",31,676,67,–,–,–

# Now those with a lower IC50 (gelatinase A (MMP-2)), led by results:
inhibition at 5 µM (collagenase (MMP-1)) [%],IC50 (gelatinase A (MMP-2)) [nM],inhibition at 5 µM (MMP-14) [%],inhibition at 0.1 µM (MMP-14) [%],IC50 (collagenase (MMP-1); read-out: IC50 MMP1) [nM],IC50 (MMP-14; read-out: IC50 MMP14) [nM],Structure (SMILES)
3,63,87,0,–,–,"CC(C)c1ccc2c(c1)CCN(S(=O)(=O)CC(C1CCCC1)N(O)C=O)C2 (stereo not shown) [Example 81, N-{1-cyclopentyl-2-[(6-isopropyl-3,4-dihydroisoquinolin-2(1H)-yl)sulfonyl]ethyl}-N-hydroxyformamide]"
49,21,100,12,–,–,"O=CN(O)C(CCc1cccnc1)CS(=O)(=O)N1CCc2ccc(Cl)cc2C1 (stereo not shown) [Example 86, N-(1-{[(7-chloro-3,4-dihydroisoquinolin-2(1H)-yl)sulfonyl]methyl}-3-pyridin-3-ylpropyl)-N-hydroxyformamide]"
29,11,86,14,–,–,"O=CN(O)C(CO)CS(=O)(=O)N1CCc2cc(Cl)c(Cl)cc2C1 (stereo not shown) [Example 49, N-[2-[(6,7-dichloro-3,4-dihydroisoquinolin-2(1H)-yl)-sulfonyl]-1-(hydroxymethyl)ethyl]-N-hydroxyformamide]"
45,10,81,10,–,–,"CC1(C)OC[C@H](C(CS(=O)(=O)N2CCc3ccc(Cl)cc3C2)N(O)C=O)O1 (stereo partly drawn) [Example 19, N-{2-[(7-chloro-3,4-dihydroisoquinolin-2(1H)-yl)sulfonyl]-1-[(4S)-2,2-dimethyl-1,3-dioxolan-4-yl]ethyl}-N-hydroxyformamide]"
